Measurements reported in a melting point compilation (Tetko et al.; mined from patent text by program, amines drawn as free bases though some values may be those of a salt).

Structure (SMILES)	melting point [°C]
Cn1cccc(N)c1=S	98 to 100
CN1C(=O)C(C)(C)N=C(c2ccccc2F)c2cc(NC(=O)C(C)(C)N)ccc21	250
CCOC(=O)CN1CC(OC)=CC1=O	54 to 56
CC(=O)Oc1cccc2c1CC(=O)N2C	109 to 111
CCCCCC(C)C(C)c1cc(O)c2c(c1)OC(C)(C)C1=C2CCC1 (stereo not given)	154 to 156
O=C(Nc1ccccc1)Nc1nc(C=C2SC(=O)NC2=O)cs1	> 300
COc1cc2ncnc(N3CCN(C(=O)NCCc4ccc(Br)cc4)CC3)c2cc1OC	174 to 175
CCCNC(=O)Cc1ccc2ccn(C3CCN(CCc4ccc(F)cc4)CC3)c2c1	131 to 132
NC(CC1c2ccccc2Oc2ccccc21)(C(=O)O)c1ccc(C(=O)O)c(O)c1 (stereo not given)	191 to 194
Cc1cnc2ccc(N)cc2n1	170 to 173
COC(=O)c1ccc2nc3scc(C)c3c(=O)n2c1	208 to 209
CC(C)n1nc(-c2c(NCc3ccccn3)nc(N)nc2-c2ccccc2)ccc1=O	196 to 198
CCc1ccc2[nH]c(C(=O)O)cc2c1	173
Oc1cnc2c(O)cccc2c1	139 to 141
CON(C)C(=O)Nc1ccc(CN2OCC(C)(C)C2=O)c(Cl)c1	93 to 95
CCn1nc(-c2ccccc2)c(C(C)=O)c(Nc2cc(Br)cc3cccnc23)c1=O	147 to 148
N#Cc1ccccc1OC[C@@H](O)CNCCOc1ccc2oc(-c3ccon3)cc2c1	94 to 95
CNc1nc2ccc(OC(F)(F)F)cc2s1	162
[N-]=[N+]=NS(=O)(=O)c1cc(C(=O)O)cc(S(=O)(=O)N=[N+]=[N-])c1	181 to 183
COc1ncc(-c2ccccc2)c(C(=O)N(C)Cc2cc(C(F)(F)F)cc(C(F)(F)F)c2)n1	97.5 to 98.5
CCCOc1ncc(S(C)(=O)=O)cc1-c1nc2c(CC)nn(C[C@@H]3CCCN3C(=O)OC(C)(C)C)c2c(=O)[nH]1	98 to 104
CCCCCCCCCCCCCC(=O)NCCCSc1ccncc1	80 to 81
CCCc1nc2c(N)nc3cc(-c4cccc(C(=O)N(CC)CC)c4)ccc3c2s1	169 to 172
CCOC(=O)c1c(CN(CC)CC)nc2sc3c(c2c1-c1ccc(OC)c(OC)c1)CCN(C(C)=O)C3	72 to 75
CCn1c(=O)ccc2cnc(Nc3ccc(F)cc3)nc21	215 to 217
COc1cc2c(cc1O)CCN(Cc1ccccc1)C2	134 to 135
NC(=O)[C@H]1CN(c2ccc(C3=NNC(=O)CS3)c(F)c2)C(=O)O1	249 to 251
COc1cc(C2OCCO2)cc(C#N)c1OC	76.5 to 77.5

Structure (SMILES)	melting point [°C]
CC(C(=O)C=Cc1ccccc1)C(=O)C=Cc1ccccc1 (stereo not given)	154 to 157
CCc1cc(OCc2ccc(-c3ccccc3-c3nnn(C(c4ccccc4)(c4ccccc4)c4ccccc4)n3)cc2)c2nc(OC(C)C)c(Cl)cc2n1	179 to 183
CCOC(=O)N(C)CC1CN(c2c(F)cc(C(=O)O)c(F)c2F)CCO1 (stereo not given)	170 to 172
C[C@@H](NC(=O)c1c[nH]c2ncc(-c3nn(C)c4cc(F)cc(F)c34)nc12)C(=O)N1CC(C#N)C1	235 to 265
O=C1NC(=O)c2c1cc1ccc3c(c1c2-c1ccc(OCc2ccccc2)cc1)OCO3	265 to 267
CCc1c(C(=O)c2cc(C)cc(C)c2)n(C/C=C/COC(C)=O)c(=O)[nH]c1=O	152 to 153
CCOC(=O)C1CCc2c(C)c(O)c(C)c(C)c2O1 (stereo not given)	108 to 109
Cc1cc(C)nc(NC(=O)NS(=O)(=O)c2ccccc2C2(O)CCC2)n1	148 to 150
O=C(O)Cc1ccc(-c2nc3cccc(Cl)c3o2)cc1	205 to 210
Cc1nc2ccc(C(=O)NS(=O)(=O)c3ccccc3)nc2n1Cc1ccc(COc2ccccc2)cc1Cl	203 to 205
O=C1NCCCCC1(Br)Br	156 to 159
COc1cccc(NC(=O)N2CCc3cc(S(=O)(=O)N4CCN(c5cccc(Cl)c5)CC4)ccc32)c1	199 to 200
CCCCOc1c2ccccc2nc2c1c(C)nn2-c1ccccn1	59 to 61
CC(=O)Oc1nc(-c2ccc(C(=O)O)cc2)sc1C	227 to 230
COc1ccc2cccc(C(CO)CNC(=O)CF)c2c1 (stereo not given)	49 to 51
Cn1cc(-c2cc(-c3ccc4[nH]ncc4c3)ccn2)n(-c2ccc(C(C)(C)C#N)cc2)c1=O	165
Cc1ccc(-c2cc(N3CCCCC3)c(C#N)c3c2-c2ccccc2C3)cc1	162 to 164
O=C(NCCCn1ncnn1)c1ccccc1NS(=O)(=O)c1cccc(C(F)(F)F)c1	67 to 69
COc1ccc(-n2c(=O)c(C(=O)O)nc3c(Cl)cccc32)cc1	198 to 200
CN(CCCNC1=CC(=O)c2sc(C(=O)N3CCOCC3)nc2C1=O)CCCNC1=CC(=O)c2sc(C(=O)N3CCOCC3)nc2C1=O	207 to 208
CC(C)(C)C(=O)CC(c1ccc(Cl)cc1)S(=O)(=O)c1ccccc1 (stereo not given)	145 to 146
N=C(N)SCc1cccc(CSC(=N)N)c1	216 to 218
COC(=O)c1c(F)cc(OCCNC(=O)OCc2ccccc2)cc1F	95 to 97
Cc1ncn(-c2nc(Cl)c(-c3ccccc3)c3ccccc23)c1C	164 to 165
OC(/C=C/c1cc(C(F)(F)F)ccc1Cl)(CF)CF	61 to 62
Cc1cc(C2=NNC(C)Cc3cc4c(cc32)OCO4)ccc1[N+](=O)[O-] (stereo not given)	144 to 147
CC1(C)CSc2sc(S(N)(=O)=O)cc2C1O (stereo not given)	158 to 159

The next lines start with the values.

melting point [°C]	Structure (SMILES)
112 to 115	CC(C)(C)OC(=O)NNC1CCN(C(=O)OC(C)(C)C)CC1
124 to 126	NC(=O)C1(Cl)CC2C3CC4C2C4C31 (stereo not given)
237 to 239	COc1cc(C(=O)O)ccc1Cc1cn(C)c2ccc(C(=O)NCC3CCCC3)cc12
131	COCc1ncc(C(=O)O)s1
81 to 82	CCOC(=O)C(=NOC)c1csc(NC(=O)CCl)n1
258 to 260	CC(C)OC(=O)c1cc2c(cn1)[nH]c1cccc(Cc3ccccc3Cl)c12
222 to 225	CSc1cnc2cc(C)sc2c1O
145 to 146	COc1nccc(C)c1NC(=O)c1cccnc1Cl
30 to 31.5	COC(=O)CCCCCCC1=CCc2cc(OC)ccc21
278 to 279	CCc1nn(-c2ccc3cc(-c4ccc([N+](=O)[O-])cc4)c(=O)oc3c2)nc1C
194 to 196	C[C@]1(COc2ccc3nc(N4CCC(=Cc5ccc(OC(F)(F)F)cc5)CC4)ccc3c2)Cn2cc([N+](=O)[O-])nc2O1
131 to 133	COc1ccc(-c2cnn3ccc(-c4ccc(OCCCNC(=O)OC(C)(C)C)c(OC)c4)nc23)cc1OC
272 to 273	CC1(C)Cc2c(c(N3CCOCC3)nc3sc4c(NCc5cnc6ccccc6c5)ncnc4c23)CO1
127 to 130	O=C(O)C(=O)c1ccc(OCCCCCCc2cccc(O)c2O)cc1
221 to 222	CC(C)(C)N1C(=O)c2cnc(-c3ccccc3)nc2Nc2ccccc21
293 to 296	COC(=O)c1cnc2c3cc(NS(C)(=O)=O)ccc3ncn2c1=O
55 to 57	CCCN(CCC)CCCOc1ccc(-c2noc(-c3ccccc3)n2)cc1
158 to 160	Cc1ccccc1Nc1nc(N(C)c2ccccc2)c2cccc(OCCO)c2n1
58 to 60	OC1CCCc2sccc21 (stereo not given)
156 to 157	CCOC(=O)c1ccc(Cn2cnc3cnccc32)cc1
183 to 186	N#CSc1nc(I)ncc1Cl
180	CN1CCN(Cc2nnc(S)n2Cc2cccc(F)c2)CC1
195	CN(c1ccc(O)cc1)c1nc2ccc(Br)cc2o1

melting point [°C]	Structure (SMILES)
186 to 190	CC1CS/C(=N/N=C\c2ccc(-c3ncn(-c4ccc(OC(F)(F)F)cc4)n3)cc2)N(c2ccccc2C(C)C)C1 (stereo not given)
222 to 224	CN1C(=O)Cn2cc(C(=O)NCc3ccc(F)cc3)c(=O)c3cc(CN4CCOCC4)cc1c32
124 to 127	Cn1cnnc1S(=O)CC(=O)C12CC3CC(CC(C3)C1)C2 (stereo not given)
110 to 112	CCCN1N=C2C(=Cc3ccccc3C)CSCC2C1c1ccccc1C (stereo not given)
221 to 228	CNC(=O)c1ccc(C=CC(=O)NCC(=O)N(C)c2ccc(Cl)c(COc3cccc4ccc(C)nc34)c2)cc1
255	Cc1c(Nc2c(C#N)cnc3sccc23)ccc2[nH]ccc12
245 to 246	O=C(CN1CCNCCNCCNCC1)Nc1c(I)cc(I)c(C(=O)O)c1I
121 to 124	COc1ccc(NC(=O)CN2CCC(Cc3ccc(F)cc3)CC2)cc1
151 to 155	COc1cc2c(cc1OC)CN(C(=O)C13CC4CC(CC(C4)C1)C3)CC2
180 to 182	O=C(Cc1ccccc1C(=O)O)Nc1cccc(/C=C/c2nc(C3CCCCCCC3)cs2)c1
> 250	Oc1ccc(-c2nc(-c3ccc(Sc4ccccc4)cc3)nc(-c3ccc(O)cc3O)n2)c(O)c1
163 to 164	CC(C#Cc1ccc(-c2ccccc2)o1)N(O)C(N)=O (stereo not given)
121 to 122	CCNC(=O)N1C(=O)Cc2cc(Cl)ccc21
128 to 130	Clc1cccc(Cl)c1CSCc1c(Cl)cccc1Cl
200 to 203	O=Cc1ccc2c(C=O)c[nH]c2c1
55 to 57	CCCCCCC(Oc1ccc(C2=CCCCCCC2)cc1)C(=O)O (stereo not given)
97 to 100	CC(C(=O)N1CCCC1C(=O)O)N(C(=O)C(NC(=O)c1ccccc1)SC(=O)c1ccccc1)C(C)(C)C (stereo not given)
226 to 228	O=C(O)Cc1ccc2c(c1)sc1c(Cl)cccc12
135	Cc1ncc(N)cc1Nc1nccc(-c2cccnc2)n1
131 to 139	CC(C)(C)OC(=O)Nc1ccc(C#Cc2ccc(F)cc2)cc1NC(=O)CC(=O)c1cccc(-n2cncn2)c1
145 to 148	CS(=O)(=O)c1ccc(C(CC2CCCC2)C(=O)Nc2nccs2)cc1C#N (stereo not given)
222 to 224	COc1cccc2c1CCC21NC(=O)c2ccccc21 (stereo not given)
